Measured values reported in patent publication US11926584B2, “Methods of making bempedoic acid and compositions of the same” (Esperion Therapeutics, Inc., priority 2019, dated 2024).

What was measured:
[1] = Dynamic vapor sorption (water sorption) of the crystalline form; type: physicochemical; conditions: relative humidity of 80%, temperature of 25° C., isotherm in FIG. 6
Method: The crystalline form of the compound of formula (V) may also be characterized according to its water sorption properties. […] In certain embodiments, the crystalline form of the compound of formula (V) has a water sorption isotherm, when measured at 25° C., substantially the same as shown in FIG. 6.

[2] = Thermogravimetric analysis (TGA) of the crystalline form; type: physicochemical; conditions: heated at 10° C./minute from ambient (~25° C.) to about 315° C., open platinum pans
Method: Thermogravimetric analysis (TGA) data for the crystalline form of the compound of formula (V) were collected using a TA Discovery 550 TGA instrument. The TGA instrument was calibrated using a nickel reference standard. Samples of the crystalline form of the compound of formula (V) were placed in open platinum sample pans and heated at a rate of 10° C./minute from about ambient temperature (˜25° C.) to about 315° C.

CC(C)(CCCCCC(O)CCCCCC(C)(C)C(=O)O)C(=O)O [compound of formula (V), 8-hydroxy-2,2,14,14-tetramethylpentadecanedioic acid]
change in mass, as determined by dynamic vapor sorption [1]: about 0.03%
weight loss in TGA curve [2]: negligible weight loss prior to decomposition
